Where only a bound is given, the exact number is not on record here.

The subject of series [1] is dyslipidemic overweight patients. The note with it: cited from earlier work; for reduction of alkaline phosphatase: control group 4%.
Series [2] relates to DIO-NASH C57BL/6J mouse. Kind of series: Diet-induced obese mouse model of NASH (DIO-NASH), 12 weeks dosing. To be noted: SD in parentheses. It counts as in vivo. The text has this:
The diet-induced obese mouse model of NASH (DIO-NASH) uses the C57BL/6J mouse fed a high fat diet that results in NAFLD/NASH. A protocol is described in Kristiansen et al., “Obese diet-induced mouse models of nonalcoholic steatohepatitis—tracking disease by liver biopsy”, World J. Hepatol., 8(16), 673-684 (2016). Male C57BL/6J mice were fed an atherogenic 40% high fat diet (AMLN diet, D09100301, Research Diet, US—40 kcal % fat (18% trans fat), 40 kcal % carbohydrate (20% fructose), 2% cholesterol) for 43 weeks before the start of the trial, to induce NAFLD/NASH. At week −3, the mice underwent a liver biopsy, which was scored for steatosis and fibrosis; mice with fibrosis stage <1 and steatosis score <2 were deselected prior to randomization. A stratified randomization into treatment groups was performed according to liver Collal quantification. […] At 12 weeks, analyses included body weight, plasma ALT, AST, triglycerides, and total cholesterol; liver triglycerides and total cholesterol; and NAS, fibrosis, Collal, galectin-3, and steatosis and fibrosis scores from a liver biopsy. Results are given in the table below: standard deviations are in parentheses: […]

Series [3] relates to obese subjects. The experiment in a line: Example 2 clinical study, single agent seladelpar in obese subjects, 52 weeks. Type of series: in vivo, human. The note with it: 10, 20, and 50 mg/day for 52 weeks. The text has this: Subjects are permitted their usual other medications (e.g. antidiabetic medications such as metformin or […]) but not glitazones, PPAR agonists, OCA, or similar medications. […] The primary efficacy outcome is the change in body weight. Other outcome measures related to the complications of obesity include change in baseline in liver fat content at 12 weeks, as measured by magnetic resonance imaging-derived proton density fat fraction (MRI-PDFF), histological improvement in NASH and fibrosis, assessed by comparing liver biopsy samples at baseline and at 52 weeks after the start of dosing; MRI-PDFF at 26 and 52 weeks; and measurements of total cholesterol, HDL-C, LDL-C, VLDL-C, TGs, apoB, and liver transaminases. The subjects also maintain health diaries, which are reviewed at each visit.

Series [4] has as its system Alms1 mutant (foz/foz) mice. To be noted: mouse, in vivo; cited from earlier work.
Series [5] concerns NAFLD/NASH. The note with it: in vivo; cited from earlier work.
Series [6] concerns women and men. To be noted: human, in vivo; cited from earlier work.
The test system of series [7] is patients with type 2 diabetes. To be noted: in SNAC carrier, 20 and 40 mg/day; cited from earlier work.
Setting [8] is: compared to placebo, alone and with atorvastatin, 8 weeks.

For `CC(C)c1c(C(=O)Nc2ccccc2)c(-c2ccccc2)c(-c2ccc(F)cc2)n1CC[C@@H](O)C[C@@H](O)CC(=O)O` [ATV, reference compound], the “increase of γ-glutamyl transpeptidase” value in series [1] (8 weeks, atorvastatin 20 mg) is reported as 2%. In addition, the “reduction of alkaline phosphatase” value in series [1] (8 weeks) is 6%.

On to `CCO[C@H](COc1ccc(C(F)(F)F)cc1)CSc1ccc(OCC(=O)O)c(C)c1` [Seladelpar, (R)-2-(4-((2-ethoxy-3-(4-(trifluoromethyl)phenoxy)propyl)-sulfanyl)-2-methylphenoxy)acetic acid], for which the NAS post-treatment in series [2] (after 12 weeks dosing) is on record as 3.9 (0.5). In series [2] (at 12 weeks), the “Liver TC” value was 10 (3) mg/g liver, the “Liver TG” value is 75 (20) mg/g liver, the “Plasma TC” value is 257 (40) mg/dL and the “Plasma TG” value is 38 (20) mg/dL. Besides, the NAS pre-treatment in series [2] (baseline biopsy before dosing) is given as 6.0 (0.8). Further, the Sirius red stain in series [2] (liver biopsy at 12 weeks) is 2.4 (1.8) %. Further, in series [2] (plasma, at 12 weeks), the ALT was 107 (65) U/L and the AST is on record as 162 (59) U/L. For the same compound, in series [3], the “improvement in obesity and complications (body weight, MRI-PDFF, liver biopsy, NAS score)” value was “dose-related improvement”. In addition, the “reduction of γ-glutamyl transpeptidase” value in series [1] (8 weeks, control group 3%) is listed as 24-28%. The “reduction of alkaline phosphatase” value in series [1] (8 weeks) is recorded as 32-43%. Also, the “reduction of apoB100” value in series [1] (compared to placebo, 50 or 100 mg alone or with atorvastatin 20 mg, 8 weeks, P<0.05) was 20-38%. Besides, in series [1] (setting [8]), the “raise of HDL-C” value is 1-12%, the “reduction of LDL” value was 18-43%, the “reduction of free fatty acids” value was 16-28% and the “reduction of high-sensitivity C-reactive protein” value was 43-72%. Moreover, in series [1] (setting [8]), the “reduction of non-HDL-C” value is 18-41% and the reduction of triglycerides is 26-30%. In addition, in series [1] (in vivo), the “depletion of small dense LDL particles” value is on record as 92%; the “reduction of the percentage of subjects meeting the criteria for metabolic syndrome” value was more than 2 fold; the safety and tolerability entry is “safe and generally well-tolerated”. The “NASH pathology (hepatic steatosis, inflammation, fibrosis)” value in series [4] is on record as “improves NASH pathology”.

On to `CCCCCCCCCCC[C@@H](C[C@@H]1OC(=O)[C@H]1CCCCCC)OC(=O)[C@H](CC(C)C)NC=O` [orlistat], for which, in series [5], the “benefit in NAFLD/NASH compared to weight loss alone” value is “no significant benefit”.

Turning to `CCc1ccc(CCOc2ccc(CC3SC(=O)NC3=O)cc2)nc1` (stereo not shown) [pioglitazone], the associated risks entry in series [6] was “significantly increased risk of weight gain, edema, congestive heart failure, and osteoporotic fractures”.

On to semaglutide, for which the “efficacy of once/day oral dosing” value in series [7] is on record as “efficacious”.

These data come from US20200155487A1, “Treatment of obesity and its complications” (CymaBay Therapeutics, Inc., priority 2018, published 2020).
